{"source": "patent EP2114888B1", "about": "“TRICYCLIC COMPOUNDS AND THEIR USE AS GLUCOCORTICOID RECEPTOR MODULATORS” (priority 2007, dated 2008)", "key": {"[1]": {"details": "mouse, in vivo", "text": "Due to blood volume sampling limitations in mice, AUC(0-4 hr) values were used to make pharmacodynamic comparisons."}, "[2]": {"experiment": "Cortical bone histomorphometry to determine bone formation rate (BFR)", "assay_type": "in vivo, mice", "experimental": "Calcein incorporates into the bone mineral and allows measurement of bone formation rate. Calcein was dissolved in 2% sodium bicarbonate. During the tissue harvest, the left tibiae were excised and cleaned for cortical histomorphometry measurements. After all skin and muscle were removed, tibiae were placed in 70% ethanol (4°C) in the dark for a minimum of 24 hours.\nGround transverse sections were used for histomorphometric analysis of cortical bone. Bones were sectioned using a low-speed saw (Isomet, Buehler, Lake Bluff, IL) equipped with a diamond wafer blade. The end of each tibia was removed proximal to tibia-fibula synostosis and a […] cross-section was cut. Using a roughened glass plate and a cork, sections were ground to […] until transparent and all labels were distinguishable under a fluorescent microscope. […] Using the Osteomeasure Bone Analysis Program (Osteometrics, Inc., Decatur, Georgia), bone formation rate was calculated by tracing the 1^s1 and 3rd fluorescent labels and the inner and outer perimeter of the bone. Bone formation rate was calculated by the following equation: (Inter-label width/Label interval) * (Labeled perimeter/Bone perimeter). At least five samples were measured from each treatment group in each study."}, "osteocalcin": {"test_system": "osteocalcin", "experiment": "Serum osteocalcin suppression, 28-day repeat dose mouse model", "details": "in vivo", "experimental": "(§1) The compounds were weighed and suspended in a vehicle of 0.5% methylcellulose/0.025% tween 20 (Sigma-Aldrich, St. Louis, MO). Compound suspensions were homogenized using a Polytron PT-3100 tissue homogenizer to create a very fine suspension and were then sonicated for 10 minutes using a water bath sonicator. Aliquots of each suspension were made for daily dosing at 0.2 ml/dose. Swiss Webster female mice, 10-12 weeks old, 28-29 grams, (Taconic, Germantown, NY) were used in accordance with the guidelines of the Institutional Animal Care and Use Committee and in accordance with NIH guidelines on laboratory animal welfare. Mice were acclimated in the Pfizer animal facility for three to seven days prior to being utilized in a study. […] Each treatment group contained 5-10 mice. To establish a dosing regimen for the studies, a pilot pharmacodynamic time course experiment was conducted to quantify TNFα repression after a single ED80 dose.\n(§2) Body weights were measured on the first and last day of each experiment. Blood samples were obtained after three weeks of dosing for a steady-state pharmacokinetic (PK) analysis. To assess compound effects on LPS-induced TNFα, all mice received an intraperitoneal injection of LPS (Salmonella typhosa, L-7895; Sigma-Aldrich, St. Louis,) 2.5 hr after the last dose on day 28. Mice were sacrificed 90 minutes after LPS administration. Serum samples were quantified for osteocalcin and TNFα using the multiplex assays (Linco Research, Inc, St. Charles, MO; Luminex 100, Austin, TX). Samples were diluted 1:20 and the assay was run according to manufacturer's instructions. The osteocalcin standard was purchased separately (Biomedical Technologies Inc., Stoughton, MA). Mice were fasted for 4 hours before serum was collected for TNFα, and osteocalcin levels. For each experiment, outliers were detected by calculating the number of standard deviations from the mean of the group. If the value being examined was more than 2.5 standard deviations from the mean, it was excluded from the rest of the calculations.\n(§3) The individual mouse percent inhibition values were fit to a four-parameter logistic model using the dose mean for each group.\n(§4) ED50 and ED80 values were obtained for the various endpoints using a four-parameter logistic fit. For compounds which were tested multiple times, ED50 and ED80 values were obtained using four-parameter logistic fits of the combined data from multiple experiments."}, "[3]": {"experiment": "Serum osteocalcin suppression, 28-day repeat dose mouse model", "details": "in vivo, po", "experimental": "as §1, §2, §3, §4"}, "IL-6": {"test_system": "IL-6", "experiment": "Ex vivo LPS-stimulated human whole blood, IL-6 production", "assay_type": "cell-based", "details": "mean values", "experimental": "(§5) Venous blood from human donors was collected as 10 ml aliquots in tubes containing sodium heparin (BD Vacutainer from Becton Dickinson and Company, Franklin Lakes, NY). Blood was added to sterile polystyrene round bottom 96-well tissue culture plates (Corning Costar) at 100 µl/well, omitting the outside wells. Media (RPMI Medium 1640 with L-glutamine, Invitrogen Corporation, Carlsbad, CA) was added to the blood in 90 µl aliquots for a total volume of 190 µl. Outside wells were filled with 200 µl of media. Blood was placed in a humidified 37°C incubator with 5% CO2 while compounds were prepared (nearly 60 minutes).\n(§6) Compounds were prepared from 10 mM stock solutions in dimethylsulfoxide (DMSO, Sigma-Aldrich). […] Final DMSO and ethanol concentrations in the assay were 0.1 % and 1.5%. The samples were gently triturated twice to mix and replaced in the incubator. LPS stock (E. coli serotype 0111:B4, Sigma-Aldrich), stored in aliquots of 100 µg/ml in RPMI at -20°C, was diluted 1/50 in RPMI to make a working stock solution. After 60 minutes of incubation, 10 µl of the prepared LPS working stock was added to the blood to a final concentration of 100 ng/ml, omitting wells to be used as negative control. The samples were again gently triturated and the plates incubated overnight for 22 hours. Following incubation, the blood was centrifuged at 1500 x g for 5 minutes and the plasma removed to either freeze at -20°C or assay for cytokine release.\n(§7) IL-1β, IFNγ,IL-6, and TNFα protein levels were measured using Meso Scale assay kits (Meso Scale Discovery, Gaithersburg, MD). Reagents were allowed to come to room temperature. Meso Scale plates were blocked with 30 µl of human plasma/serum assay diluent with gentle shaking for 60 minutes at room temperature. Plates were washed 3x with wash buffer (PBS, Invitrogen Corporation, with 0.05% Tween-20, Sigma-Aldrich). Calibrators for standard curves were prepared in human plasma/serum assay diluent as a 1/5 serial dilution to achieve final concentrations ranging from 50000 pg/ml to 3.2 pg/ml. Samples and calibrators were added at 20 µl/well, then incubated at room temperature with gentle shaking for 90 minutes. Plates were again washed 3 times with wash buffer. Detection antibody was diluted in human plasma/serum antibody diluent to 1 µg/ml and added to the plate at 20 µl/well. Plates were incubated as before for 60 minutes and washed again. Read Buffer T (4x) was diluted 1:1 with mqH2O to 2 times concentration and 150 µl added to each well. Plates were analyzed on the SECTOR Imager 6000 (Meso Scale Discovery) to generate raw signal values.\n(§8) Individual values were compared to positive and negative controls (vehicle treated blood with LPS and vehicle treated blood without LPS, respectively) to generate % inhibition. Triplicate values were averaged for each donor. The values for two donors were averaged (only one donor was used for IL-1β) and graphed using 4-parameter fit curves in the GraFit 5.0.11 application."}, "IL-1β": {"test_system": "IL-1β", "experiment": "Ex vivo LPS-stimulated human whole blood, IL-1β production", "assay_type": "cell-based", "details": "one donor", "experimental": "as §5, §6, §7, §8"}}}
{"smiles": "Cc1ncccc1NC(=O)c1ccc2c(c1)CC[C@@H]1C[C@@](O)(C(F)(F)F)CC[C@@]21Cc1ccccc1", "note": "[Example 1, (4βS,7R,8αR)-4β-benzyl-7-hydroxy-N-(2-methylpyridin-3-yl)-7-(trifluoromethyl)-4β,5,6,7,8,8α,9,10-octahydrophenanthrene-2-carboxamide]", "values": [{"measurement": "AUC(0-4 hr) values as share of the AUC(0-24 hr) values", "setting": "[1]", "result": "more than 95%"}, {"measurement": "Cortical bone formation rate (BFR) EAUC50", "setting": "[2]; data set 2", "result": 0.35}, {"measurement": "Cortical bone formation rate (BFR) EAUC80", "setting": "[2]; data set 2", "result": 1.76}, {"measurement": "Cortical bone formation rate (BFR) EAUC50 (AUC 0-4 hr)", "setting": "[2]; mice", "result": 0.27, "unit": "µg·h/mL"}, {"measurement": "Cortical bone formation rate (BFR) EAUC80 (AUC 0-4 hr)", "setting": "[2]; mice", "result": 1.55, "unit": "µg·h/mL"}, {"measurement": "Serum osteocalcin EAUC50 (AUC 0-4 hr)", "setting": "osteocalcin", "result": 1.30, "unit": "µg·h/mL"}, {"measurement": "Serum osteocalcin EAUC80 (AUC 0-4 hr)", "setting": "osteocalcin", "result": 4.20, "unit": "µg·h/mL"}, {"measurement": "Osteocalcin Suppression (ED80 dose)", "setting": "osteocalcin; po", "result": ">10", "unit": "mg/kg"}, {"measurement": "ED50", "setting": "[3]", "result": 2.91, "unit": "mg/kg"}, {"measurement": "inhibition at 0.000457247 µM", "setting": "IL-6; 0.457247 nM", "result": -1.37, "unit": "%"}, {"measurement": "inhibition at 0.00137174 µM", "setting": "IL-6; 1.371742 nM", "result": 3.33, "unit": "%"}, {"measurement": "inhibition at 0.00411523 µM", "setting": "IL-6; 4.115226 nM", "result": -1.07, "unit": "%"}, {"measurement": "inhibition at 0.0123457 µM", "setting": "IL-6; 12.34568 nM", "result": -0.369, "unit": "%"}, {"measurement": "inhibition at 0.037037 µM", "setting": "IL-6; 37.03704 nM", "result": -0.828, "unit": "%"}, {"measurement": "inhibition at 0.111111 µM", "setting": "IL-6; 111.1111 nM", "result": 0.944, "unit": "%"}, {"measurement": "inhibition at 0.333333 µM", "setting": "IL-6; 333.3333 nM", "result": 2.15, "unit": "%"}, {"measurement": "inhibition at 1 µM", "setting": "IL-6; 1000 nM", "result": 8.05, "unit": "%"}, {"measurement": "inhibition at 0.000457247 µM", "setting": "IL-1β; 0.457247 nM", "result": 23.4, "unit": "%"}, {"measurement": "inhibition at 0.00137174 µM", "setting": "IL-1β; 1.371742 nM", "result": 22.4, "unit": "%"}, {"measurement": "inhibition at 0.00411523 µM", "setting": "IL-1β; 4.115226 nM", "result": 11.2, "unit": "%"}, {"measurement": "inhibition at 0.0123457 µM", "setting": "IL-1β; 12.34568 nM", "result": 21.5, "unit": "%"}, {"measurement": "inhibition at 0.037037 µM", "setting": "IL-1β; 37.03704 nM", "result": 38.2, "unit": "%"}, {"measurement": "inhibition at 0.111111 µM", "setting": "IL-1β; 111.1111 nM", "result": 39.7, "unit": "%"}, {"measurement": "inhibition at 0.333333 µM", "setting": "IL-1β; 333.3333 nM", "result": 57.8, "unit": "%"}, {"measurement": "inhibition at 1 µM", "setting": "IL-1β; 1000 nM", "result": 53.5, "unit": "%"}]}
